These results are taken from patent publication US8664236B2, “1H-pyrrolo[2,3 b]-pyridine derivatives” (Merck Patent GmbH, priority 2010, dated 2014).

Structures are written as SMILES. pIC50: −log10 of the molar value. Values after ≈ are worked out from the molar mass of the structure shown. Where two headings read alike, the source gives them in different places.

Data set [1] addresses PDK1 kinase in PC3 cells (PKB phosphorylation at Thr 308) (Homo sapiens (Human), UniProt O15530). Briefly: Cellular testing of PDK1 kinase inhibitors in PC3 cells (Luminex, phospho-T308-PKB). The class given is cell-based. Conditions: for pIC50: PKB phosphorylation at Thr 308 in PC3 cells, read-out: cellular IC50; for IC50: Table I comparison, read-out: PDK1 inhibition assay cellular IC50. How it is done:
Method for the Cellular Testing of PDK1 Kinase Inhibitors in PC3 Cells
The cellular assay for the determination of the PDK1 kinase activity is carried out as a Luminex assay in the 96-well format. PC3 cells are sown at 20,000 cells per well in 100 μl of medium (45% of […]/45% of Ham's F12/10% of FCS) and incubated on the following day for 30 min with a serial dilution of the test substance (7 concentrations) under serum-free conditions. The cells are subsequently lysed using 90 μl of lysis buffer (20 mM tris/HCl pH 8.0, 150 mM NaCl, 1% of NP40, 10% of glycerol, 1% of phosphatase inhibitor I, 1% of phosphatase inhibitor II, 0.1% of protease inhibitor cocktail III, 0.01% of benzonase) per well, and the lysates are separated off from insoluble cell constituents by means of centrifugation through a 96-well filter plate (0.65 μm). The lysates are incubated overnight at 4° C. with shaking with Luminex beads to which an anti-total PKB antibody is coupled. The detection is carried out on the following day by addition of a phospho-T308-PKB antibody and a species-specific […] secondary antibody. The detection of phospho-T308-PKB is carried out by measurement in a Luminex100 instrument by determination of 100 events per cavity in a measurement time of 60 sec. […] The values of the batches treated with test substance are calculated therefrom as percentage of control, and IC50 values are determined by means of RS1.

A short description of a further data set: Solubility. Format: physicochemical. The following applies: Table I.
Another data set addresses PDK1 (His6-PDK1(Δ1-50)) (Homo sapiens (Human), UniProt O15530). Description: Test for the inhibition of PDK1 (enzymatic, flashplate, 33P-ATP). Format: biochemical. How it is done:
4. Test for the Inhibition of PDK1
The experimental batches are carried out in a flashplate system with 384 wells/microtitration plate.
The test substances are employed in corresponding concentrations (if desired in a dilution series). The control is carried out without test substance. The reaction is stopped using standard methods and washed. The activity of the kinase is measured via the incorporated radioactivity in top count. In order to determine the non-specific kinase reaction (blank value), the experimental batches are carried out in the presence of 100 nM staurosporine.
The radioactivity (decompositions per minute) of the blank value (no use of test substance in the presence of staurosporine) is subtracted from all other radioactivity values. The controls (kinase activity without test substance) are set equal to 100 percent and all other radioactivity values (after subtracting the blank value) are expressed set in relation thereto (for example in % of the control).

The mark [2] stands for this setting: Table I comparison, read-out: PDK1 inhibition assay enzymatic IC50.
Setting [3] is: enzymatic PDK1 inhibition assay, read-out: enzymatic IC50.

Sequence of PDK1 kinase in PC3 cells (PKB phosphorylation at Thr 308) (O15530 whole entry): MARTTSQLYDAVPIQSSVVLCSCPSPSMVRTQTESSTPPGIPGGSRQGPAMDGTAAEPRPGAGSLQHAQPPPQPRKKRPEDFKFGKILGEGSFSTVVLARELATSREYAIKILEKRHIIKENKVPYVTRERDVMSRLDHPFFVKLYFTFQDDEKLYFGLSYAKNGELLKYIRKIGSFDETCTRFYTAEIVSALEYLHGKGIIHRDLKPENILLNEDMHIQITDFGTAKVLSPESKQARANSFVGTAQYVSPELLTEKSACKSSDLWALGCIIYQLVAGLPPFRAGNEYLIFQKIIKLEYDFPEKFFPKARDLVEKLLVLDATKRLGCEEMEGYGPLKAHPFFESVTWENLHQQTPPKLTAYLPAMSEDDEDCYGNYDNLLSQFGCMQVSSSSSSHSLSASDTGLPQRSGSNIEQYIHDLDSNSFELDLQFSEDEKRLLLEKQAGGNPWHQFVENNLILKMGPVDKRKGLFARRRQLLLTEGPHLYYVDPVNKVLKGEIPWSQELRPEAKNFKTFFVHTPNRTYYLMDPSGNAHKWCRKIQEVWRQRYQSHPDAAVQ
Sequence of PDK1 (His6-PDK1(Δ1-50)) (O15530 51-556): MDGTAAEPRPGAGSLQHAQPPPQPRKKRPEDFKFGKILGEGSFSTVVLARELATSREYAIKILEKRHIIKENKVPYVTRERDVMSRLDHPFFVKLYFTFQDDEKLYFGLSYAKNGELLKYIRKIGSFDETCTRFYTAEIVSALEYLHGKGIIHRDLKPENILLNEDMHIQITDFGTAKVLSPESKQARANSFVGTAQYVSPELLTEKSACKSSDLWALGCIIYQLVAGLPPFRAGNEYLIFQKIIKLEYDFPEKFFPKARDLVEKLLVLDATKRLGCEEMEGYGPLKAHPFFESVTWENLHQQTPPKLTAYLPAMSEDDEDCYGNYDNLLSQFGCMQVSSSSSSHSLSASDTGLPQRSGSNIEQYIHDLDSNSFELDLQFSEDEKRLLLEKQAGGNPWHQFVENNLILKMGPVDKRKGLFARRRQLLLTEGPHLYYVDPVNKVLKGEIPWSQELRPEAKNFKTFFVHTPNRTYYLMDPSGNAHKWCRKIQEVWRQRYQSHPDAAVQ

Turning to `Cn1cc(-c2cnc3[nH]cc(-c4cc(N(CCO)c5ccccc5)nc(N)n4)c3c2)cn1` [A4, 2-({2-Amino-6-[5-(1-methyl-1H-pyrazol-4-yl)-1H-pyrrolo[2,3-b]-pyridin-3-yl]pyrimidin-4-yl}phenylamino)ethanol], the pIC50 was 6.60 in data set [1], 7.89 at PDK1 (His6-PDK1(Δ1-50)) (setting [2]) and 7.89 at PDK1 (His6-PDK1(Δ1-50)) (setting [3]). Moreover, the IC50 in data set [1] (values in nM) is 250 nM. Moreover, in “Solubility”, the solubility was found to be 1 µg/mL (≈ 2.34 µM).

Take `CC(C)n1cc(-c2cnc3[nH]cc(-c4cc(C(C)(O)c5ccccc5)nc(N)n4)c3c2)cn1` (stereo not shown) [reference compound]: the IC50 in data set [1] (values in nM) was 492 nM. The compound further gave a solubility in the data set “Solubility” of less than 1 µg/mL. The pIC50 at PDK1 (His6-PDK1(Δ1-50)) (setting [2]) was 7.27.

For the compound `CC(C)n1cc(-c2cnc3[nH]cc(-c4cc(C5(O)CCCC5)nc(N)n4)c3c2)cn1` [reference compound], the IC50 in data set [1] (values given in μM) stood at 3500 nM. The same compound gave a solubility in the data set “Solubility” of 8 µg/mL (≈ 19.8 µM). Further, at PDK1 (His6-PDK1(Δ1-50)) (setting [2]), the pIC50 is 7.21.

For the compound `CC(=O)NCCCc1cc(-c2c[nH]c3ncc(-c4cnn(C(C)C)c4)cc23)nc(N)n1` [reference compound], in data set [1] (values given in μM), the IC50 is greater than 30000 nM. Besides, the solubility in “Solubility” was greater than 46 µg/mL. The pIC50 at PDK1 (His6-PDK1(Δ1-50)) (setting [2]) was 6.62.

In the case of `CC(C)n1cc(-c2cnc3[nH]cc(-c4cc(N(C)c5ccccc5Cl)nc(N)n4)c3c2)cn1` [A19, N4-(2-Chlorophenyl)-6-[5-(1-isopropyl-1H-pyrazol-4-yl)-1H-pyrrolo[2,3-b]pyridin-3-yl]-N4-methylpyrimidine-2,4-diamine], the pIC50 in data set [1] was 6.40; at PDK1 (His6-PDK1(Δ1-50)) (setting [3]) it was 7.52.

Take `COc1ccc(N(C[C@H](O)CO)c2cc(-c3c[nH]c4ncc(-c5cnn(C)c5)cc34)nc(N)n2)cc1` [A5, (S)-3-[{2-Amino-6-[5-(1-methyl-1H-pyrazol-4-yl)-1H-pyrrolo-[2,3-b]pyridin-3-yl]pyrimidin-4-yl}-(4-methoxyphenyl)amino]-propane-1,2-diol]: the pIC50 in data set [1] was 5.17; at PDK1 (His6-PDK1(Δ1-50)) (setting [3]), 7.62.

Regarding `Cn1cc(-c2cnc3[nH]cc(-c4cc(C5(c6ccccc6)CC5)nc(N)n4)c3c2)cn1` [A3, 4-[5-(1-Methyl-1H-pyrazol-4-yl)-1H-pyrrolo[2,3-b]pyridin-3-yl]-6-(1-phenylcyclopropyl)pyrimidin-2-ylamine], the pIC50 in data set [1] was 6.96; on PDK1 (His6-PDK1(Δ1-50)) (setting [3]), 7.23.

For the compound `Cn1cc(-c2cnc3[nH]cc(-c4cc(N(CCO)c5ccc(F)cc5F)nc(N)n4)c3c2)cn1` [A25, 2-[{2-Amino-6-[5-(1-methyl-1H-pyrazol-4-yl)-1H-pyrrolo[2,3-b]-pyridin-3-yl]pyrimidin-4-yl)-(2,4-difluorophenyl)amino]ethanol], the pIC50 in data set [1] was 7.46; on PDK1 (His6-PDK1(Δ1-50)) (setting [3]), 8.19.

With `COCC(O)CN(c1ccccc1)c1cc(-c2c[nH]c3ncc(-c4cnn(C)c4)cc23)nc(N)n1` (stereo not shown) [A21, 1-({2-Amino-6-[5-(1-methyl-1H-pyrazol-4-yl)-1H-pyrrolo[2,3-b]-pyridin-3-yl]pyrimidin-4-yl}phenylamino)-3-methoxypropan-2-ol], the pIC50 in data set [1] is 6.28; on PDK1 (His6-PDK1(Δ1-50)) (setting [3]), 7.96.

Turning to `Cn1cc(-c2cnc3[nH]cc(-c4cc(C5(c6ccccc6)CCCC5)nc(N)n4)c3c2)cn1` [A6, 4-[5-(1-Methyl-1H-pyrazol-4-yl)-1H-pyrrolo[2,3-b]pyridin-3-yl]-6-(1-phenylcyclopentyl)pyrimidin-2-ylamine], the pIC50 in data set [1] is 6.20; at PDK1 (His6-PDK1(Δ1-50)) (setting [2]), 6.89; at PDK1 (His6-PDK1(Δ1-50)) (setting [3]), 6.89. Moreover, the IC50 in data set [1] (values given in μM) was 625 nM. Besides, the solubility in “Solubility” is less than 1 µg/mL.

On to `Cn1cc(-c2cnc3[nH]cc(-c4cc(N5CCOc6ccccc65)nc(N)n4)c3c2)cn1` [A27, 4-(2,3-Dihydrobenzo-1,4-oxazin-4-yl)-6-[5-(1-methyl-1H-pyrazol-4-yl)-1H-pyrrolo[2,3-b]pyridin-3-yl]pyrimidin-2-ylamine], for which the pIC50 was less than 5.00 in data set [1] and 8.30 on PDK1 (His6-PDK1(Δ1-50)) (setting [3]).

Take `CCN(c1ccc(Cl)cc1)c1cc(-c2c[nH]c3ncc(-c4cnn(C)c4)cc23)nc(N)n1` [A13, N4-(4-Chlorophenyl)-N4-ethyl-6-[5-(1-methyl-1H-pyrazol-4-yl)-1H-pyrrolo[2,3-b]pyridin-3-yl]pyrimidine-2,4-diamine]: the pIC50 in data set [1] is 6.92; at PDK1 (His6-PDK1(Δ1-50)) (setting [3]), 7.34.

With `CCN(c1cc(-c2c[nH]c3ncc(-c4cnn(C)c4)cc23)nc(N)n1)c1nncs1` [A20, N4-Ethyl-6-[5-(1-methyl-1H-pyrazol-4-yl)-1H-pyrrolo[2,3-b]pyridin-3-yl]-N4-1,3,4-thiadiazol-2-ylpyrimidine-2,4-diamine], the pIC50 in data set [1] was less than 5.00; at PDK1 (His6-PDK1(Δ1-50)) (setting [3]) it was 6.81.

Take `Cn1cc(-c2cnc3[nH]cc(-c4cc(N(CCO)c5ccccc5Cl)nc(N)n4)c3c2)cn1` [A16, 2-[{2-Amino-6-[5-(1-methyl-1H-pyrazol-4-yl)-1H-pyrrolo[2,3-b]-pyridin-3-yl]pyrimidin-4-yl}-(2-chlorophenyl)amino]ethanol]: the pIC50 in data set [1] was 8.59; at PDK1 (His6-PDK1(Δ1-50)) (setting [3]) it was 8.33.
